Reference: ChEMBL document CHEMBL4321822 (J Med Chem, 2019)
Active and inactive are the calls of the source. The calls are words filed in the database; no cut-off is given here.

How the values were obtained:
[1] = molecular target: T1, Acetylcholinesterase (Mus musculus, UniProt P21836); experiment: Inhibition of mouse AChE using acetylthiocholine as substrate measured after 300 secs by Ellman's method
T1 sequence (P21836 whole entry): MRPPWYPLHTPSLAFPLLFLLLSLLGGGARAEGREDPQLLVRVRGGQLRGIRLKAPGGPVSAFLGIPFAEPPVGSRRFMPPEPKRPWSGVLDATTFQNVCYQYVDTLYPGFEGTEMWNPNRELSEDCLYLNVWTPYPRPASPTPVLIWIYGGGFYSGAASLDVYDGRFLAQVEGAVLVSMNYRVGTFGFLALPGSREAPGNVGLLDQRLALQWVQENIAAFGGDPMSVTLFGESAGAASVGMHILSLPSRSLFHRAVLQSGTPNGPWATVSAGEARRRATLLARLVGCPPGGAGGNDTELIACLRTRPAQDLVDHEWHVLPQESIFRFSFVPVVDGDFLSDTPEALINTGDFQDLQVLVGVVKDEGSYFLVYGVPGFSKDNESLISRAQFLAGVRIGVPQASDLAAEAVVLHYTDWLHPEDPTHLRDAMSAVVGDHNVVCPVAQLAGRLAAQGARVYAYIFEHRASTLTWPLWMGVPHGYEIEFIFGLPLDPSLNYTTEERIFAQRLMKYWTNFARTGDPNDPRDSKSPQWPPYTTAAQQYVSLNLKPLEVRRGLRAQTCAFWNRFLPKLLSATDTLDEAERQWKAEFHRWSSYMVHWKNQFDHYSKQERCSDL

[2] = molecular target: Acetylcholinesterase (Homo sapiens) (UniProt P22303); experiment: Inhibition of human erythrocyte AChE at 10 uM using acetylthiocholine iodide as substrate preincubated for 20 mins followed by substrate addition and measured after 2.5 mins by DTNB reagent based spectrometric method relative to control
Sequence of Acetylcholinesterase (Homo sapiens) (P22303 whole entry): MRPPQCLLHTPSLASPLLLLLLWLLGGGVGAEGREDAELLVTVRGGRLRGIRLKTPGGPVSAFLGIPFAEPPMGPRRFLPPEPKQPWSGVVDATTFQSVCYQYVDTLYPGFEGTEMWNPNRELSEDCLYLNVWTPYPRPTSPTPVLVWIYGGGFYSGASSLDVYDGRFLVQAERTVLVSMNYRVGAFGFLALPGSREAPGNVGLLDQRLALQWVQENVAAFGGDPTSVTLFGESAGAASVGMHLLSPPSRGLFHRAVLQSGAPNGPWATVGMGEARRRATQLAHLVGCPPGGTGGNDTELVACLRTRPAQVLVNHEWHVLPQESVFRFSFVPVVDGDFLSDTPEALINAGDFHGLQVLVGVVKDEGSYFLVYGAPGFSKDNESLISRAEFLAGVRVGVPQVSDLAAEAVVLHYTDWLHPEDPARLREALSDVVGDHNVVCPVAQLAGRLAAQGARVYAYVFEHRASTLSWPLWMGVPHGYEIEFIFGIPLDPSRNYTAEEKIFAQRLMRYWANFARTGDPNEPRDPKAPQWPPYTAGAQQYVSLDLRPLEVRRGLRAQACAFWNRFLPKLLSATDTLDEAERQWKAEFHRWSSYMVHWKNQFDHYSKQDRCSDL

[3] = molecular target: T2, Cholinesterase (Homo sapiens, UniProt P06276); experiment: Inhibition of human plasma BChE using butyrylthiocholine iodide as substrate preincubated for 20 mins followed by substrate addition and measured after 2.5 mins by DTNB reagent based spectrometric method
T2 sequence (P06276 whole entry): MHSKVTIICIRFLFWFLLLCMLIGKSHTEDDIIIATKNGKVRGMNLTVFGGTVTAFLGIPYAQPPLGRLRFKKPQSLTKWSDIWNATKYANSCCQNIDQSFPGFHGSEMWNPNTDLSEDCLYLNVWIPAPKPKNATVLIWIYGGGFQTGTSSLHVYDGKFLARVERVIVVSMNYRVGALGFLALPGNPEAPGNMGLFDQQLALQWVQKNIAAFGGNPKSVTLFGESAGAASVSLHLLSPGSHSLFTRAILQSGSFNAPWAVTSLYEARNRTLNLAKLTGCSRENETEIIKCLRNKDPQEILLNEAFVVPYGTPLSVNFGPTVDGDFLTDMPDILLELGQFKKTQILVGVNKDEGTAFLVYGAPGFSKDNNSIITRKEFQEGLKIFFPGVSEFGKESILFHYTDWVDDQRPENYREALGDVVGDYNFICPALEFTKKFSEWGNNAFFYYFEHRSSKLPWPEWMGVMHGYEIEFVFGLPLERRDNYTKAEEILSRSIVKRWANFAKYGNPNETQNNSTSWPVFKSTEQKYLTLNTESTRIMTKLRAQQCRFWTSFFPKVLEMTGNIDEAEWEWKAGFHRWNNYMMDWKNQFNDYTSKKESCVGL

[4] = molecular target: Cholinesterases; ACHE & BCHE (Homo sapiens) (UniProt P06276+P22303); experiment: Selectivity index, ratio of IC50 for inhibition of human erythrocyte AChE to IC50 for inhibition of human plasma BChE; assay type: protein assay
Sequence of Cholinesterases; ACHE & BCHE (Homo sapiens) (P06276 whole entry, looked up): as the sequence (P06276 whole entry) above
Sequence of Cholinesterases; ACHE & BCHE (Homo sapiens) (P22303 whole entry, looked up): as the sequence (P22303 whole entry) above

[5] = system: Mus musculus; experiment: Effect on shock sensitivity during training in Swiss mouse model of Alzheimer's disease assessed as increase in retention latency time at 0.3 to 3 mg/kg, ip administered once daily for 7 days measured 48 hrs post-last dose by step-through passive avoidance test; assay type: ADME, organism-based; details: in vivo
[6] = system: Mus musculus; experiment: Effect on latency time during training in Swiss mouse model of Alzheimer's disease assessed as increase in retention latency time at 0.3 to 3 mg/kg, ip administered once daily for 7 days measured 48 hrs post-last dose by step-through passive avoidance test; assay type: ADME, organism-based; details: in vivo
[7] = system: Mus musculus; experiment: Neuroprotection against oligomerized-amyloid beta (25 to 35)-induced Swiss mouse model of Alzheimer's disease assessed as improvement in spontaneous alternation at 3 mg/kg, ip administered once daily for 7 days measured on day 8 by Y-maze test; assay type: functional, organism-based
[8] = system: Mus musculus; experiment: Neuroprotection against oligomerized-amyloid beta (25 to 35)-induced Swiss mouse model of Alzheimer's disease assessed as increase in number of arm entries at 0.3 to 3 mg/kg, ip administered once daily for 7 days measured on day 8 by Y-maze test; assay type: functional, organism-based
[9] = Toxicity in oligomerized-amyloid beta (25 to 35)-induced Swiss mouse model of Alzheimer's disease assessed as effect on body weight gain at 0.3 to 3 mg/kg, ip administered once daily for 7 days measured daily during compound dosing; assay type: organism-based; details: in vivo, 168 h
[10] = system: Mus musculus; experiment: Neuroprotection against oligomerized-amyloid beta (25 to 35)-induced Swiss mouse model of Alzheimer's disease assessed as increase in retention latency time at 1 to 3 mg/kg, ip administered once daily for 7 days measured 48 to 72 hrs post-last dose by step-through passive avoidance test; assay type: functional, organism-based
[11] = molecular target: T2, Cholinesterase; experiment: (§1) Inhibition of human plasma BChE assessed as carbamylation by measuring rate constant for inhibitor-carrier-enzyme complex formation using butyrylthiocholine iodide as substrate preincubated for 5 to 40 mins followed by substrate addition and measured after 2.5 mins by DTNB reagent based UV-spectrometric method
[12] = molecular target: T2, Cholinesterase; experiment: as §1, with “inhibitor-enzyme” for “inhibitor-carrier-enzyme”
[13] = system: Mus musculus; experiment: Neuroprotection against oligomerized-amyloid beta (25 to 35)-induced Swiss mouse model of Alzheimer's disease assessed as increase in retention latency time at 0.3 to 3 mg/kg, ip administered once daily for 7 days measured 48 to 72 hrs post-last dose by step-through passive avoidance test; assay type: functional, organism-based
[14] = system: Mus musculus; experiment: Neuroprotection against oligomerized-amyloid beta (25 to 35)-induced Swiss mouse model of Alzheimer's disease assessed as improvement in spontaneous alternation at 0.3 to 3 mg/kg, ip administered once daily for 7 days measured on day 8 by Y-maze test; assay type: functional, organism-based
[15] = system: Mus musculus; experiment: Neuroprotection against oligomerized-amyloid beta (25 to 35)-induced Swiss mouse model of Alzheimer's disease assessed as improvement in spontaneous alternation at 0.3 mg/kg, ip administered once daily for 7 days measured on day 8 by Y-maze test; assay type: functional, organism-based
[16] = system: HT-22; experiment: Neurotoxicity in mouse HT22 cells assessed as reduction in cell viability up to 25 uM measured after 24 hrs by MTT assay; assay type: toxicity, cell-based; details: ht-22, 24 h
[17] = molecular target: T2, Cholinesterase; experiment: (§2) Inhibition of human plasma BChE assessed as half life for enzyme-inhibitor complex formation at IC>85 using butyrylthiocholine iodide as substrate incubated for 1 hr prior to compound dilution further incubated for 1 to 40 mins and subsequent substrate addition and measured after 2.5 mins by DTNB reagent based UV-spectrometric method
[18] = molecular target: T2, Cholinesterase; experiment: as §2, with “decarbamylation by measuring rate constant” for “half life”, “enzyme recovery” for “enzyme-inhibitor complex formation”
[19] = system: HT-22; experiment: Neuroprotection against glutamate-induced cell death in mouse HT22 cells assessed as increase in cell viability measured after 24 hrs by MTT assay; assay type: functional, cell-based
[20] = system: Mus musculus; experiment: Neuroprotection against oligomerized-amyloid beta (25 to 35)-induced Swiss mouse model of Alzheimer's disease assessed as improvement in spontaneous alternation at 1 to 3 mg/kg, ip administered once daily for 7 days measured on day 8 by Y-maze test; assay type: functional, organism-based
[21] = system: HT-22; experiment: Neuroprotection against glutamate-induced cell death in mouse HT22 cells assessed as increase in cell viability at 5 uM measured after 24 hrs by MTT assay; assay type: functional, cell-based
[22] = system: Mus musculus; experiment: Neuroprotection against oligomerized-amyloid beta (25 to 35)-induced Swiss mouse model of Alzheimer's disease assessed as improvement in spontaneous alternation at 1 mg/kg, ip administered once daily for 7 days measured on day 8 by Y-maze test; assay type: functional, organism-based

SMILES | inhibition [2] [%] | IC50 [3] [nM] | Ratio IC50 [4] | K [11] [nM] | K [12] [min⁻¹] | T1/2 [17] [h] | K [18] [h⁻¹] | also measured
COCCN(CC1CCCN(Cc2ccccc2)C1)S(=O)(=O)c1ccc2ccccc2c1 (centres undefined) |  |  |  |  |  |  |  | IC50 [1]: > 10000 nM
CN1c2ccc(OC(=O)NCCCCCCCCCCN3CCOCC3)cc2CN2CCc3ccccc3C21 (centres undefined) | 17.8 | 11.5 | > 1000 |  |  |  |  | 
CCCCCCCNC(=O)Oc1ccc2c(c1)CN(C)C(c1cccs1)N2C (centres undefined) |  |  |  |  |  |  |  | Activity [5]: Non-Toxic; Activity [6]: Non-Toxic; Activity [7]: Active; Activity [8]: inactive; Activity [9]: Non-Toxic; Activity [10]: Active
CN1c2ccc(OC(=O)NCCCCCCCCCCN3CCc4ccccc4C3)cc2CN2CCc3ccccc3C21 (centres undefined) | 5.7 |  | > 1000 | 5.68 | 0.25 |  |  | 
CN1c2ccc(O)cc2CN2CCc3ccccc3C21 (centres undefined) |  |  |  |  |  |  |  | Activity [13]: inactive; Activity [5]: Non-Toxic; Activity [6]: Non-Toxic; Activity [8]: Active; Activity [9]: Non-Toxic; Activity [14]: inactive
CN1c2ccc(OC(=O)NCCCCCCN3CCOCC3)cc2CN2CCc3ccccc3C21 (centres undefined) | 26.1 | 49.3 | > 1000 | 202 | 0.16 | 16.5 | 0.042 | Activity [13]: Active; Activity [15]: Active; Activity [16]: Non-Toxic; Activity [5]: Non-Toxic; Activity [6]: Non-Toxic; Activity [8]: Active; Activity [9]: Non-Toxic; Activity [19]: Dose-dependent effect
CN1c2ccc(OC(=O)NCCCCCCCCN3CCc4ccccc4C3)cc2CN2CCc3ccccc3C21 (centres undefined) | 6.2 | 32.6 | > 1000 |  |  | 0.84 | 0.83 | 
CN1c2ccc(OC(=O)NCCCN3CCOCC3)cc2CN2CCc3ccccc3C21 (centres undefined) | 2.1 |  | > 100 |  |  |  |  | 
CCCCCCCNC(=O)Oc1ccc2c(c1)CN1CCc3ccccc3C1N2C (centres undefined) |  |  |  |  | 0.66 |  |  | Activity [13]: Active; Activity [16]: Non-Toxic; Activity [5]: Non-Toxic; Activity [6]: Non-Toxic; Activity [20]: Active; Activity [8]: Active; Activity [21]: Active; Activity [9]: Non-Toxic
CN1c2ccc(OC(=O)NCCCCCCN3CCCCC3)cc2CN2CCc3ccccc3C21 (centres undefined) |  | 83.7 | 14 |  |  | 5.64 | 0.123 | 
CN1c2ccc(OC(=O)NCCCN3CCc4ccccc4C3)cc2CN2CCc3ccccc3C21 (centres undefined) | 6.4 | 1160 | > 10 |  |  |  |  | 
CN1c2ccc(OC(=O)NCCCCN3CCOCC3)cc2CN2CCc3ccccc3C21 (centres undefined) | 16.3 | 50.6 | > 1000 |  |  | 1.44 | 0.48 | 
CN1c2ccc(OC(=O)NCCCCCCCCN3CCOCC3)cc2CN2CCc3ccccc3C21 (centres undefined) | 13.6 | 19.8 | > 1000 |  |  | 0.44 | 1.58 | 
CN1c2ccc(OC(=O)NCCN3CCc4ccccc4C3)cc2CN2CCc3ccccc3C21 (centres undefined) | 3.9 | 1720 | > 10 | > 200000 | > 20 |  |  | 
CN1c2ccc(OC(=O)NCCCCN3CCc4ccccc4C3)cc2CN2CCc3ccccc3C21 (centres undefined) | 6 | 192 | > 100 |  |  | 24.8 | 0.028 | 
CN1c2ccc(OC(=O)NCCCCCCn3ccnc3)cc2CN2CCc3ccccc3C21 (centres undefined) | 9.1 | 13.3 | > 1000 | 13.1 | 0.31 | 0.85 | 0.82 | 
CN1c2ccc(OC(=O)NCCCCCCN3CCc4ccccc4C3)cc2CN2CCc3ccccc3C21 (centres undefined) | 0.4 | 26.7 | > 1000 | 3.6 | 0.18 | 27.7 | 0.025 | Activity [13]: Active; Activity [22]: Active; Activity [16]: Non-Toxic; Activity [5]: Non-Toxic; Activity [6]: Non-Toxic; Activity [8]: Active; Activity [9]: Non-Toxic; Activity [19]: Dose-dependent effect
CN1c2ccc(OC(=O)NCCCCCCN3CCCC3)cc2CN2CCc3ccccc3C21 (centres undefined) |  | 34.3 | 26 |  |  | 0.71 | 0.98 | 
CN1c2ccc(OC(=O)NCCCCCCN3CCN(C(=O)OC(C)(C)C)CC3)cc2CN2CCc3ccccc3C21 (centres undefined) | 70.6 | 123 | > 10 | 1550 | 0.7 |  |  | 
CN1c2ccc(OC(=O)NCCCCCCN3CCNCC3)cc2CN2CCc3ccccc3C21 (centres undefined) | 35.5 | 80.6 | > 100 | 121 | 0.32 | 0.48 | 1.44 | 
CN1c2ccc(OC(=O)NCCCCCCn3cnc4ccccc43)cc2CN2CCc3ccccc3C21 (centres undefined) | 28.8 |  | > 1000 | 7.7 | 0.26 | 1.55 | 0.45 | 
CN1c2ccc(OC(=O)NCCN3CCOCC3)cc2CN2CCc3ccccc3C21 (centres undefined) | 4.1 |  | > 10 |  |  |  |  | 
